From ChEMBL document CHEMBL1201862, “PubChem BioAssay data set” (2004)
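Briefly, cells in 96-well plates were exposed to five compound concentrations for 48 h, and endpoints were estimated by linear interpolation. The concentration for 50% growth inhibition is given as GI50.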 Active and inactive are the calls of the source. Rule as the data show it: active = GI50 up to about 1.1 µM and inactive = higher.

Columns and labels:
Experiment in all cases: growth of human tumour cells (NCI), 48 h
RXF 631 = system: RXF 631
DMS-114 = system: DMS-114
LXFL 529 = system: LXFL 529
HOP-18 = system: HOP-18
DLD-1 = system: DLD-1
XF498 = system: XF498
DMS-273 = system: DMS-273

Measured: GI50

N#Cc1cc(NC(=O)c2ccccc2)c(=O)n2c1[nH]c1ccccc12
inactive: RXF 631 46.9 µM | DMS-114 23 µM | LXFL 529 33 µM | HOP-18 7.45 µM | DLD-1 28.9 µM | XF498 31.4 µM | DMS-273 30.1 µM
